Test results taken from PMC7558026, “Exploring and applying the substrate promiscuity of a C-glycosyltransferase in the chemo-enzymatic synthesis of bioactive C-glycosides” (Nature Communications, 2020).
Several values for one entry are separate records, joined by “and”; a condition that tells them apart may be missing. Equal values may be shown once.

Legend:
AbCGT = AbCGT (Aloe vera, UniProt A0A7G9P699); assay: Glycosyltransferase activity assay, purified AbCGT (wild type) with aglycon acceptors and UDP-Glc; format: biochemical, Aloe barbadensis; details: fig. 2b, purified AbCGT, redesigned substrates; Reaction-1 to -3
in vitro = details: human
SGLT2 = biological target: T1, SGLT2 (Homo sapiens, UniProt P31639); assay: 1-NBDG uptake in HEK293 cells stably expressing SGLT2; format: cell-based; details: HEK293, compound at 10 μM; triplicate; read-out: SGLT2 inhibitory rates
T1 construct: Human full-length SGLT2 cDNA (NM_003041.3) was synthesized; expressed in transfected cells; host or cells: HEK293, retroviral transduction with pMSCVpuro-SGLT2, puromycin selected
T1 sequence (P31639 1-672): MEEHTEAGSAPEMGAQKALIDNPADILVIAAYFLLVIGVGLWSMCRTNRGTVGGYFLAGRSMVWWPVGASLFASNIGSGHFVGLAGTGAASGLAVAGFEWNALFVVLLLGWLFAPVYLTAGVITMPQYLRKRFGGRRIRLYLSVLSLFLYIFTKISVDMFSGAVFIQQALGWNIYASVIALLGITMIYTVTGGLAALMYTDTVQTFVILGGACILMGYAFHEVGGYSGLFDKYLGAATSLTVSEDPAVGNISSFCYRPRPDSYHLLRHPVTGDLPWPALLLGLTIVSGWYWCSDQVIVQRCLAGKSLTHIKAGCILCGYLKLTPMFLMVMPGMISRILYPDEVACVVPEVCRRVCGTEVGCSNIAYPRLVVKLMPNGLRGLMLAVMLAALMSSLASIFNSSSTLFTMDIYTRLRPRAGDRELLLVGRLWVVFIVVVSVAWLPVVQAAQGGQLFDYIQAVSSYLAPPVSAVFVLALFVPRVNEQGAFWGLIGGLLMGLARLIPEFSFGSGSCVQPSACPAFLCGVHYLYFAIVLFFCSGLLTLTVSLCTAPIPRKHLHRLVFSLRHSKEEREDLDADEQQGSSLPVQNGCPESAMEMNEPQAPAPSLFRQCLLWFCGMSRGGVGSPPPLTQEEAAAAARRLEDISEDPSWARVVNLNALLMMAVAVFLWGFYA

[1] = tested on: Influenza A/WSN/33 (H1N1); assay: microbe, parasite or virus in culture; format: cell-based; details: — = no inhibition activity
E. coli-AbCGT = assay: Glycosylation by whole-cell biocatalyst E. coli-AbCGT; format: cell-based; details: fig. 2c, 30 °C, M9 medium, 12 h, 0.25 mM acceptor; Reaction-1 to -3
Procedure: The induced cells of E. coli-AbCGT were harvested by centrifugation at 3000 × g for 5 min at 4 °C and washed with ddH2O. Pellets were resuspended by M9 minimal medium containing 2% glucose to appropriate cell density (OD600 = 3.0). Prepared whole-cell biocatalyst of E. coli-AbCGT (500 μL) was then added to 2-mL tubes containing various acceptors at a concentration of 0.25 mM. The mixture was incubated at 30 °C for 12 h with shaking (200 rpm). The reactions were analyzed using GT activity assays as described above. For quantification, three parallel assays were routinely carried out.

Chain of AbCGT (A0A7G9P699 entry or part of it): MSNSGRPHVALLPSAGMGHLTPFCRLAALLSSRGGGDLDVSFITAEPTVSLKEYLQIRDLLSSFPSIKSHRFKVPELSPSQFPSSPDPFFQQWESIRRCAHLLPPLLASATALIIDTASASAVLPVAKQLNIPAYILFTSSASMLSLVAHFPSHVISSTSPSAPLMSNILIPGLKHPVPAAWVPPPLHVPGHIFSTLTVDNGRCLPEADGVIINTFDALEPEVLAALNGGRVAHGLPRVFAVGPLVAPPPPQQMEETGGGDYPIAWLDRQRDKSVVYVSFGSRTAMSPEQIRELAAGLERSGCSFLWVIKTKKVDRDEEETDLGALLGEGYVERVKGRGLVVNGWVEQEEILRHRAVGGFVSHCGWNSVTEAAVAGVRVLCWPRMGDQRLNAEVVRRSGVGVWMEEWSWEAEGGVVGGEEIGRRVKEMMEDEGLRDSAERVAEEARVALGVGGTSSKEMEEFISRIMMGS

Oc1cc(O)c(Cc2ccc3nccnc3c2)c(O)c1 [Compound 44]
conversion rates, Purified Enzyme (AbCGT): 100%
CC50 (in vitro): > 200 µM
inhibition at 10 µM (SGLT2): 0.2%
inhibition at 20 µM ([1]; final concentration 20 μM, read-out: Inhibitory Rates, anti-influenza A virus activity): < 0%
IC50 ([1]; read-out: IC50, anti-influenza A virus activity): > 20 µM
conversion rates, Whole cells (E. coli-AbCGT): 7.1% and 12.8% and 10.1%
